# Reference: patent publication US11554162B2, “Pharmaceutical or food supplement preparation based on alpha-lactalbumin” (KOLFARMA S.R.L., priority 2018, dated 2023)
# What was measured:
# [1] = in vivo; cited from earlier work
# [2] = tested on: audiogenic seizures; assay: Protection against seizures in experimental models of epilepsy (audiogenic seizures in genetically epilepsy-prone-9 rats); assay type: in vivo; details: different experimental models of epilepsy; no increase on continuing up to 12 days; not dose dependent
# Source text: Also the results obtained both in experimental models and in clinical trials confirm the need of repeated administrations for several days.
# [3] = tested on: seizures induced by acoustic stimulation; details: after three weeks of treatment; cited from earlier work
# [4] = cited from earlier work
# [5] = tested on: PTZ-induced seizures; assay: Anticonvulsant action in the pentylenetetrazol (PTZ) seizure model after 15-day oral pretreatment; assay type: in vivo, C57BL/6 male mice
# Procedure: The anticonvulsant action of a preparation according to the invention, consisting of alpha-lactalbumin and sodium butyrate, was evaluated in comparison with that of the single components alpha-lactalbumin and sodium butyrate in the above-mentioned animal model, using the convulsant agent pentylenetetrazol
# The experiment was carried out on groups of 10 C57BL/6 male mice (Charles River Italy) for each tested dose (control groups of 10 C57BL/6 male mice were also used).
# The animals of all groups were subcutaneously administered pentylenetetrazol (65 mg/kg) at the end of a 15-day pretreatment with sodium butyrate, alpha-lactalbumin, alpha-lactalbumin+sodium butyrate or vehicle, i.e. water (control), respectively.
# This pretreatment was carried out by oral administration of a solution of either one of sodium butyrate, alpha-lactalbumin, alpha-lactalbumin+sodium butyrate in the vehicle, consisting of water, and of the vehicle (water) alone.
# Firstly, three groups of 10 mice were orally administered 30 mg/day, 100 mg/day and 250 mg/day of sodium butyrate respectively, in the form of an aqueous solution contained in the bottle of the cage, for 15 days. The bottle of the cage of the control group (10 mice) only contained water.
# On the 16th day, the animals of the four groups were subcutaneously administered 65 mg/kg of pentylenetetrazol.
# Then, three groups of 10 mice were orally administered 125 mg/day, 250 mg/day and 375 mg/day of alpha-lactalbumin respectively, in the form of an aqueous solution contained in the bottle of the cage, for 15 days. The bottle of the cage of the control group (10 mice) only contained water.
# On the 16th day, the animals of the four groups were subcutaneously administered 65 mg/kg of pentylenetetrazol (PTZ).
# Finally, a first group of 10 mice was orally administered 125 mg alpha-lactalbumin+100 mg sodium butyrate per day, a second group of 10 mice was orally administered 250 mg alpha-lactalbumin+100 mg sodium butyrate per day, a third group of 10 mice was orally administered 375 mg alpha-lactalbumin+100 mg sodium butyrate per day, in the form of an aqueous solution contained in the bottle of the cage, for 15 days. The bottle of the cage of the control group (10 mice) only contained water.
molecule,measurement,setting,value
CCCC(=O)O [butyric acid],cerebral uptake,[1],~0.006%
alpha-lactalbumin,days of repeated administrations until protective action against seizures occurs,[2],at least 6 days
same,duration of protective effect against seizures after suspension of treatment,[3],at least one month
same,time after oral administration to demolition into medium-small peptides in the stomach,[4],15 min
same,effect on percentage of mice with PTZ-induced seizures,"[5]; alpha-lactalbumin 125 mg/day alone, oral for 15 days",does not significantly decrease
same,animals showing PTZ-induced seizures,"[5]; alpha-lactalbumin 375 mg/day oral for 15 days, PTZ 65 mg/kg s.c. on day 16",less than 40%
same,course of percentage of animals with PTZ-induced seizures over dose,"[5]; alpha-lactalbumin 125, 250, 375 mg/day oral for 15 days",decrease in a dose-dependent fashion
"CCCC(=O)[O-].[Na+] [sodium butyrate, reference compound]",animals that experienced seizures induced by pentylenetetrazol,"[5]; sodium butyrate 30, 100 or 250 mg/day oral in drinking water for 15 days, PTZ 65 mg/kg s.c. on day 16, no significant difference from control",100%
same,activity towards the seizures induced by pentylenetetrazol,[5]; sodium butyrate alone,devoid of any activity
